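Exposure lasted 48 hours, with cells grown in 96-well plates and compounds tested at five concentrations. Abbreviation: GI50, concentration required for 50% inhibition of growth.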 Calls of active or inactive are those of the source. Rule as the data show it: active = GI50 up to about 1.1 µM and inactive = higher.
Columns and labels:
Assay in all cases: NCI tumour cell line growth inhibition, 48 h
ACHN = test system: ACHN
HCC 2998 = test system: HCC 2998
HCT-116 = test system: HCT-116
IGROV-1 = test system: IGROV-1
KM12 = test system: KM12
LOX IMVI = test system: LOX IMVI
MCF7 = test system: MCF7
Malme-3M = test system: Malme-3M
NCI-H226 = test system: NCI-H226
NCI-H23 = test system: NCI-H23
NCI-H522 = test system: NCI-H522
OVCAR-8 = test system: OVCAR-8
SF-539 = test system: SF-539
SNB-19 = test system: SNB-19
SW-620 = test system: SW-620
TK-10 = test system: TK-10
U-251 = test system: U-251
UACC-257 = test system: UACC-257
UACC-62 = test system: UACC-62
UO-31 = test system: UO-31

Measured: GI50

CC(C)C(NC(=O)C(Cc1ccccc1)NC(=O)[C@H]1CCC[C@H]1NC(=O)C(N)Cc1ccc(O)cc1)C(N)=O (stereo not given in full)
inactive: ACHN > 100 µM | HCC 2998 > 100 µM | HCT-116 > 100 µM | IGROV-1 > 100 µM | KM12 > 100 µM | LOX IMVI > 100 µM | MCF7 > 100 µM | Malme-3M > 100 µM | NCI-H226 > 100 µM | NCI-H23 > 100 µM | NCI-H522 > 100 µM | OVCAR-8 > 100 µM | SF-539 > 100 µM | SNB-19 > 100 µM | SW-620 > 100 µM | TK-10 > 100 µM | U-251 > 100 µM | UACC-257 > 100 µM | UACC-62 > 100 µM | UO-31 > 100 µM

COC(OC)C1OC(CO)C(n2ccc(N)nc2=O)C1O (stereo not given)
inactive: ACHN > 100 µM | HCC 2998 > 100 µM | HCT-116 > 100 µM | IGROV-1 > 100 µM | KM12 > 100 µM | LOX IMVI > 100 µM | MCF7 > 100 µM | Malme-3M > 100 µM | NCI-H226 > 100 µM | NCI-H23 > 100 µM | NCI-H522 > 100 µM | OVCAR-8 > 100 µM | SF-539 > 100 µM | SNB-19 > 100 µM | SW-620 > 100 µM | TK-10 > 100 µM | U-251 > 100 µM | UACC-257 > 100 µM | UACC-62 > 100 µM | UO-31 > 100 µM

O=C1NC2(CCN(CCc3ccccc3)CC2)Oc2ccccc21
inactive: ACHN 84.7 µM | HCC 2998 62.1 µM | HCT-116 55.2 µM | IGROV-1 > 100 µM | KM12 54.7 µM | LOX IMVI 53.7 µM | MCF7 46.5 µM | Malme-3M 33.3 µM | NCI-H226 61.1 µM | NCI-H23 64 µM | NCI-H522 95.1 µM | OVCAR-8 64.7 µM | SF-539 > 100 µM | SNB-19 85.3 µM | SW-620 > 100 µM | TK-10 > 100 µM | U-251 61.9 µM | UACC-257 37.8 µM | UACC-62 46.6 µM | UO-31 49 µM

Cc1cc2c(cc1Cl)SC(c1ccccc1O)NS2(=O)=O (stereo not given)
inactive: ACHN 52.8 µM | HCC 2998 31 µM | HCT-116 27.5 µM | IGROV-1 42.4 µM | KM12 94 µM | LOX IMVI 43.8 µM | MCF7 36.9 µM | Malme-3M 24.4 µM | NCI-H226 86.5 µM | NCI-H23 70.6 µM | NCI-H522 48.9 µM | OVCAR-8 > 100 µM | SF-539 48.8 µM | SNB-19 81.3 µM | SW-620 19.2 µM | TK-10 > 100 µM | U-251 72.9 µM | UACC-257 53 µM | UACC-62 29.6 µM | UO-31 63.2 µM

O=C(O)c1ccccc1NC(c1ccccc1)c1ccc2cccnc2c1O (stereo not given)
inactive: ACHN 9.18 µM | HCC 2998 12.3 µM | HCT-116 3.65 µM | IGROV-1 20.4 µM | KM12 5.31 µM | LOX IMVI 7.96 µM | MCF7 4.85 µM | Malme-3M 15.8 µM | NCI-H226 4.27 µM | NCI-H23 12.6 µM | NCI-H522 3.97 µM | OVCAR-8 4.85 µM | SF-539 5.14 µM | SNB-19 5.24 µM | SW-620 5.4 µM | TK-10 13.8 µM | U-251 4.08 µM | UACC-257 14 µM | UACC-62 11.6 µM | UO-31 6.12 µM

S=C(N/N=C(\C(=N/NC(=S)N1CCCCC1)c1ccccn1)c1ccccn1)N1CCCCC1
inactive: ACHN 6.84 µM | HCC 2998 26.3 µM | HCT-116 15.5 µM | IGROV-1 48.8 µM | KM12 51.8 µM | LOX IMVI 20.2 µM | MCF7 12.1 µM | Malme-3M 17.3 µM | NCI-H226 26.3 µM | NCI-H23 44.8 µM | NCI-H522 9.18 µM | OVCAR-8 27.9 µM | SF-539 35.4 µM | SNB-19 30.3 µM | SW-620 9.12 µM | TK-10 19.4 µM | U-251 32.7 µM | UACC-257 54.1 µM | UACC-62 26.5 µM | UO-31 19.2 µM

N#CC(C#N)=C(N)/C(C#N)=C/c1ccc2[nH]ccc2c1
inactive: ACHN > 100 µM | HCC 2998 > 100 µM | HCT-116 > 100 µM | IGROV-1 > 100 µM | KM12 > 100 µM | LOX IMVI > 100 µM | MCF7 > 100 µM | Malme-3M > 100 µM | NCI-H226 > 100 µM | NCI-H23 > 100 µM | NCI-H522 97.3 µM | OVCAR-8 > 100 µM | SF-539 > 100 µM | SNB-19 > 100 µM | SW-620 > 100 µM | TK-10 > 100 µM | U-251 > 100 µM | UACC-257 > 100 µM | UACC-62 > 84.9 µM | UO-31 14 µM

CC(C)=CC(=O)c1[nH]c2ccccc2c1CC(=O)NCCc1cncn1C
inactive: ACHN 66.4 µM | HCC 2998 34.6 µM | HCT-116 67.9 µM | IGROV-1 47.4 µM | KM12 55.7 µM | LOX IMVI 55.5 µM | MCF7 42.4 µM | Malme-3M > 100 µM | NCI-H226 88.3 µM | NCI-H23 51.1 µM | NCI-H522 21.8 µM | OVCAR-8 62.4 µM | SF-539 60.7 µM | SNB-19 93.8 µM | SW-620 85.7 µM | TK-10 58.7 µM | U-251 74.5 µM | UACC-257 52.6 µM | UACC-62 61.9 µM | UO-31 21.4 µM

c1cncc(-c2cc(-c3cc(-c4cccnc4)[nH]n3)n[nH]2)c1
inactive: ACHN > 100 µM | HCC 2998 > 100 µM | HCT-116 > 100 µM | IGROV-1 > 100 µM | KM12 > 100 µM | LOX IMVI > 100 µM | MCF7 > 100 µM | Malme-3M > 100 µM | NCI-H226 > 100 µM | NCI-H23 > 100 µM | NCI-H522 > 100 µM | OVCAR-8 > 100 µM | SF-539 > 100 µM | SNB-19 > 100 µM | SW-620 > 100 µM | TK-10 > 100 µM | U-251 > 100 µM | UACC-257 > 100 µM | UACC-62 > 100 µM | UO-31 > 100 µM
